Assay results reported in US4532202A, “Coupler for photography” (Konishiroku Photo Industry Co., Ltd., priority 1982, dated 1985).

Tests used:
[1] = Solubility test of couplers in di-n-butyl phthalate / ethyl acetate, visual evaluation of crystal precipitation; type: physicochemical; parameters: key: A: no precipitation; B: slight precipitation; C: precipitation in large amount; details: 1 g coupler in 1 ml di-n-butyl phthalate and 4 ml ethyl acetate, dissolved at 70° C., left to stand at 20° C.
Description: Solubility tests were conducted by use of the couplers for photography of this invention and Control couplers as indicated in Table 2 below. Each one gram of respective couplers was added to a mixture of 1 ml of di-n-butyl phthalate and 4 ml of ethyl acetate and the resulting mixture was heated at 70° C. for complete dissolution, followed by sealing with a stopper. Each sample was left to stand at 20° C. and precipitation of crystals was evaluated by visual observation. In Table 2, in the evaluation column, A represents no precipitation, B slight precipitation and C precipitation in large amount.

[2] = Photographic characteristics (sensitivity, maximum density, maximum absorption) of silver halide color photographic material containing coupler; details: cyan dye formed
Description: The resultant solution was mixed with 5 ml of an aqueous 10% solution of Alkanol B (aklylnaphthalene sulfonate, produced by Du Pont de Nemours & Co.) and 200 ml of an aqueous 5% gelatin solution and emulsified by means of a colloid mill to prepare respective coupler dispersions. Then, each of these coupler dispersions was added to 500 g of a gelatin-silver chlorobromide emulsion, and the mixture was applied on polyethylene coated paper, followed by drying, to prepare six kinds of light-sensitive silver halide color photographic materials. These samples were subjected to wedge exposure following the conventional procedure and then processed as follows.
Processing step (30° C.)
Color developing 3 min. 30 sec.
Bleach-fixing 1 min. 30 sec.
Washing with water 2 min.
In the following, compositions of respective processing solutions are shown.
[Composition of color developing solution]
4-Amino-3-methyl-N--ethyl-N--
(β-methanesulfonamidoethyl)-aniline sulfate
Sodium hexamethaphosphate 2.5 g
Anhydrous sodium sulfite 1.85 g
Made up to one liter with addition of water, and adjusted to pH 10.30 with sodium hydroxide.
[Composition of bleach-fixing solution]
Iron ammonium salt of ethylenediaminetetraacetic
Diammonium salt of ethylenediaminetetraacetic
Ammonium thiosulfate 124.5 g
Sodium metabisulfite 13.3 g
Anhydrous sodium sulfite 2.7 g
Made up to one liter with addition of water.
For samples obtained by the above processing, photographic characteristics were measured respectively. Measurements were conducted by use of PDA-60 Model sensitometer (produced by Konishiroku Photo Industry Co.) The results are shown in Table 3 below.
The sensitivity values are shown as relative sensitivities to the value of the sample having the highest sensitivity as 100.

Evaluation of solubility After 6 hours [1] | Evaluation of solubility After 12 hours [1] | Evaluation of solubility After one hour [1] | Maximum absorption [2] | Compound
C | C | B | – | CCC(Oc1ccc(C(C)(C)CC)cc1C(C)(C)CC)C(=O)Nc1cc(O)c(NC(=O)c2c(F)c(F)c(F)c(F)c2F)cc1Cl (stereo not drawn) [Control coupler (B)]
C | C | B | – | CCCCCCCCC(Oc1ccc(C(C)(C)CC)cc1C(C)(C)CC)C(=O)Nc1cc(O)c(NC(=O)c2c(F)c(F)c(F)c(F)c2F)cc1Cl (stereo not drawn) [Control coupler (C)]
B | C | B | – | CCCCCCCCCCCCC(Oc1ccc(C(C)(C)CC)cc1C(C)(C)CC)C(=O)Nc1cc(O)c(NC(=O)c2c(F)c(F)c(F)c(F)c2F)cc1Cl (stereo not drawn) [Control coupler (D)]
– | – | – | 654 nm | CCC(Oc1ccc(C(C)(C)CC)cc1C(C)(C)CC)C(=O)Nc1cc(Cl)c(C)c(Cl)c1O (stereo not drawn) [Control coupler (E)]
– | – | – | 641 nm | CCCCCCCCCCCCC(Oc1ccc(NS(=O)(=O)CCCC)cc1)C(=O)Nc1cc(O)c(NC(=O)c2ccccc2)cc1Cl (stereo not drawn) [Control coupler (F)]
– | – | – | 640 nm | CCCCCCCCCCCCC(Oc1ccc(O)c(C(C)(C)C)c1)C(=O)Nc1ccc(NC(=O)c2ccccc2F)c(O)c1 (stereo not drawn) [Control coupler (G)]
A | A | A | 655 nm | CCC(C)(C)c1ccc(OC(C(=O)Nc2cc(O)c(NC(=O)c3c(F)c(F)c(F)c(F)c3F)cc2Cl)C(C)C)c(C(C)(C)CC)c1 (stereo not drawn) [Exemplary compound (I-2), 2-(2,3,4,5,6-pentafluoro)benazmido-4-chloro-5-[α-(2,4-di-t-amylphenoxy)-β-methylbutaneamido]phenol]
A | A | A | – | CC(C)C(Oc1ccc(C(C)(C)C)cc1C(C)(C)C)C(=O)Nc1cc(O)c(NC(=O)c2c(F)c(F)c(F)c(F)c2F)cc1Cl (stereo not drawn) [Exemplary compound (I-3)]
A | A | A | – | CCC(C)C(Oc1ccc(C(C)(C)CC)cc1C(C)(C)CC)C(=O)Nc1cc(O)c(NC(=O)c2c(F)c(F)c(F)c(F)c2F)cc1Cl (stereo not drawn) [Exemplary compound (I-4)]
– | – | – | 654 nm | CCCCCCCCCCCCCCCc1cccc(OC(C(=O)Nc2cc(O)c(NC(=O)c3c(F)c(F)c(F)c(F)c3F)cc2Cl)C(C)C)c1 (stereo not drawn) [Exemplary compound (I-10), 2-(2,3,4,5,6-pentafluoro)benzamido-4-chloro-5-[α-(m-pentadecylphenoxy)-β-methylbutaneamido]phenol]
– | – | – | 657 nm | CCCCS(=O)(=O)Nc1ccc(OC(C(=O)Nc2cc(O)c(NC(=O)c3c(F)c(F)c(F)c(F)c3F)cc2Cl)C(C)C)cc1 (stereo not drawn) [Exemplary compound (I-11)]
